Patent US20080038809A1, “ISOLATED LECTIN POLYPEPTIDES CONSISTING OF TRUNCATED […] UDP-GalNAc:POLYPEPTIDE N- ACETYLGALACTOSAMINYLTRANSFERASES” (GLYCOZYM APS, priority 2002, published 2008)
“Also recorded” adds a separate entry of the source.

What was measured:
[1] = tested on: MUC1 in CHO1d1D/MUC1F-clone2 cells; experiment: MUC1 expression in cell lysates, immunoprecipitation and SDS-PAGE western blot (FIGS. 12-15); assay type: cell-based, Chinese Hamster; details: 2 mM; for SDS-PAGE migration of MUC1 (O-glycosylation): cells grown in Gal and GalNAc
Method: FIG. 12 is an SDS-PAGE Western analysis of GalNAcα-benzyl inhibition of MUC1 expression in CHO 1d1D cells stably transfected with a full coding MUC1 construct. […] Cells were further treated with 2 mM GalNAcα-benzyl (lanes 1, 4, 7, 10), 2 mM GlcNAcα-benzyl (lanes 2, 5, 8, 11) or no inhibitor (lanes 3, 6, 9, 12). Cells were washed and lysed at 24 or 48 hours and the lysates subjected to immunoprecipitation with monoclonal antibody HMFG2, which broadly recognize MUC1 glycoforms. Immunoprecipitates were analysed by SDS-PAGE and western blot using HMFG2 antibody to detect MUC1 expression. Lane M indicates molecular markers with assigned mw. Lane C includes a control MUC1 180-mer tandem repeat peptide which has been GalNAc-glycosylated with 3 moles GalNAc per repeat using GalNAc-T2. The sharp bands migrating at 100-200 kd are immunoglobulins indicated by IgG.
Cells were further treated with 2 mM GalNAcα-benzyl (lanes 1, 4, 7, 10), 2 mM GalNAcβ-benzyl (lanes 2, 5, 8, 11) or 2 mM GlcNAcα-benzyl (lanes 3, 6, 9, 12). Cells were washed and lysed at 36 hours and the lysates subjected to immunoprecipitation with monoclonal antibodies HMFG2 (lanes 1-6) or 5E5 (lanes 7-12). Immunoprecipitates were analysed by SDS-PAGE and western blot using HMFG2 antibody. Lanes M and C as described in legend to FIG. 7.
We next analysed the expression of MUC1 produced by CHO1d1D/MUC1F-clone2 cells by SDS-PAGE western analysis. […] Cells were further treated with 2 mM GalNAcα-benzyl, GlcNAcα-benzyl or no inhibitor. Cells were washed and lysed at 24 or 48 hours and the lysates subjected to immunoprecipitation with monoclonal antibody HMFG2, which broadly recognize MUC1 glycoforms. Immunoprecipitates were analysed by SDS-PAGE and western blot using HMFG2 antibody to detect MUC1 expression. […] In striking contrast, treatment with GalNAcα-benzyl had significant effect after 48 hours. […] This indicates some heterogeneity in glycosylation.
As shown in Examples 2 and 3, polypeptide GalNAc-transferases contain lectin domains with binding properties for GalNAc-peptides including GalNAc-MUC1 peptides. […] GalNAcβ-benzyl, the β-anomeric configuration of GalNAc-benzyl (there is a β linkage between the N-acetylgalactosamine and the benzyl ring), was custom synthesized by Alberta Research Council (Canada), and its structure was confirmed by mass spectrometry and ^1H-NMR. […] Cells were then treated with 2 mM GalNAcα-benzyl, GalNAcβ-benzyl, or GlcNAcα-benzyl as control (GlcNAcα-benzyl was shown in Example 4 to have no effect). Cells were washed and lysed as described above after 36 hours and the lysates subjected to immunoprecipitation with anti-MUC1 monoclonal antibodies HMFG2 or 5E5. […] FIG. 15 illustrates the same experiment as in FIG. 14 except that the detection antibody is 5E5 and only Tn and STn MUC1 glycoforms are visualised.

[2] = target: T1, human GalNAc-T2 (UDP-GalNAc:polypeptide N-acetylgalactosaminyltransferase T2) isolated truncated lectin domain (T2ld), HIS-tagged, amino acid residues 408-571 o (Homo sapiens, UniProt Q10471); assay type: binding
T1 sequence (Q10471 408-571): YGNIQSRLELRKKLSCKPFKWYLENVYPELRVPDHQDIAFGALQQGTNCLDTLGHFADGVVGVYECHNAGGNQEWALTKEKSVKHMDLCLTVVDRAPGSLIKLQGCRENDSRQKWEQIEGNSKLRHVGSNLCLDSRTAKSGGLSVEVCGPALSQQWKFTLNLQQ
Source text: (§1) In order to minimize the size and functional complexity of GalNAc-transferase lectins to be used as probes for binding studies, we used multiple sequence alignment analysis to predict and design suitable expression constructs for isolated lectin domains (FIG. 2). In the present invention a direct binding assay was developed using isolated lectin domains of GalNAc-T4 and -T2 with minimal size (FIG. 5). […] The lectin Helix Pomatia (HP) was used as a control plant lectin with known binding specificity for […].
(§2) Direct binding ELISA assay was developed as follows: Polystyrene microtiter plates (Maxisorb, Nunc, Denmark) were coated with peptides or enzymatically glycosylated glycopeptides in PBS overnight at 4° C. Plates were washed and blocked with 0.1% Tween20 and 0.2% BSA in PBS for 1 h at room temperature, followed by incubation with biotinylated proteins in PBS with 0.05% Tween20 for 2 h at room temperature. After four washes with PBS, plates were incubated with 1:2,000 dilution streptavidin-HRP (Sigma) in PBS for 30 min at room temperature and washed four times with PBS. Development was performed with 0.5 mg/ml o-phenylenediamine and 0.02% H2O2 at room temperature for 15 min, and reaction stopped by adding 100 μl/well of 0.5 N H2SO4. Competitive inhibition assays were done at end-point titers of GalNAc-transferase proteins with one hour preincubations with inhibitor.
(§3) In binding studies using lectins without biotinylation antibodies to the HIS-tag and the T7-tag, or in some experiments antibodies raised to GalNAc-T2 and -T4 enzymes were used to detect binding.
(§4) Inhibition experiments were used to further define the binding specificity of GalNAc-T2 and -T4 secreted soluble enzymes as well as lectin domains compared to Helix Pomatia lectin (Table IV).
(§5) The ligand target used in this Example is a GalNAc-MUC1 glycopeptide produced enzymatically from synthetic peptides.

[3] = target: human GalNAc-T4 (UDP-GalNAc:polypeptide N-acetylgalactosaminyltransferase T4) isolated truncated lectin domain (T4ld), HIS-tagged, amino acid residues 405-578 o (Homo sapiens, UniProt Q8N4A0); experiment: biochemical; assay type: binding; details: isolated lectin domain
human GalNAc-T4 (UDP-GalNAc:polypeptide N-acetylgalactosaminyltransferase T4) isolated truncated lectin domain (T4ld), HIS-tagged, amino acid residues 405-578 o, sequence (Q8N4A0 405-578): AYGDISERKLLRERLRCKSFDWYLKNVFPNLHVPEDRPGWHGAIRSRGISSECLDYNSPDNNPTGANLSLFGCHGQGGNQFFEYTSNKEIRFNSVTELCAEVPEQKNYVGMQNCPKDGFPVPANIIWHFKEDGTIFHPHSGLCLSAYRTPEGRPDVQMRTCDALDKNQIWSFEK
Source text: as §1, §2, §3, §4, §5

inhibition of GalNAc-T2 lectin domain binding (in words) [2]	inhibition of GalNAc-T4 lectin domain binding (in words) [3]	Structure (SMILES)	MUC1 expression ([1]; 24 hours, HMFG2 blot)	MUC1 expression ([1]; 36 hours, 5E5 blot (FIG. 15))	MUC1 expression ([1]; 36 hours, HMFG2 blot (FIG. 14))	MUC1 expression ([1]; 48 hours, HMFG2 blot, cells grown in GalNAc or Gal and GalNAc)	SDS-PAGE migration of MUC1 (O-glycosylation) ([1]; 48 hours, listed as GalNAcα-benzyl)	SDS-PAGE migration of MUC1 (O-glycosylation) ([1]; 36 hours)
–	–	CC(=O)N[C@H]1[C@@H](OCc2ccccc2)O[C@H](CO)[C@H](O)[C@@H]1O [BzlαGalNAc, benzyl-N-acetyl-alpha-D-galactosaminide]	no significant effect	strong inhibition	significant reduction	significant reduction	significant shift in migration; also recorded: marked shift in migration	–
inhibited binding to the same degree	inhibited binding to the same degree	CC(=O)N[C@H]1[C@@H](OCc2ccccc2)O[C@H](CO)[C@H](O)[C@@H]1O [GalNAcα-benzyl, benzyl-N-acetyl-alpha-D-galactosaminide]	–	–	–	–	–	–
inhibited binding to the same degree	inhibited binding to the same degree	CC(=O)N[C@H]1[C@H](OCc2ccccc2)O[C@H](CO)[C@H](O)[C@@H]1O [GalNAcβ-benzyl]	–	strong inhibition; also recorded: same or better reduction	significant reduction; also recorded: same or better reduction	–	–	does not interfere with O-glycosylation; also recorded: no change in the migration
